Where two headings read alike, the source gives them in different places.
Key:
[1] = molecular target: wt RmlA (glucose-1-phosphate thymidylyltransferase) (Salmonella typhimurium, UniProt P26393)
Experimental: (§1) Enzymatic Reactions—The enzyme assay was accomplished via slight modification of previously reported methods (Jiang et al. (2000) J. Am. Chem. Soc. 122, 6803-6804; Jiang et al. (2001) Angew. Chem., Int. Ed. 40, 1502-1505; Jiang et al. (2003) Chem Bio Chem 4, 443-446; Barton et al. (2002) Proc. Natl. Acad. Sci. U.S.A. 99, 13397-13402). In a typical reaction, sugar-1-phosphate (10 mM final) and enzyme (0.01-50 μM) were mixed with NTP (0.01-40 mM) in the presence of MgCl2 ([NTP]+5 mM) and 10 U/mL inorganic pyrophosphatase (Sigma, St. Louis, Mo., USA) in 100 mM Tris HCl, pH 8.0 (20 μL final volume). Typical reactions were analyzed after 10 min at 37° C. and reaction times were extended for some slow reacting sugar/NTP combinations. Reactions were stopped by the addition of 80 μL prewarmed HPLC buffer and heat inactivation (95° C., 5 min). The amount of enzyme used and the incubation time was adjusted so that the reactions never proceeded to more than 10% turnover for kinetics, or 30% for activity assays.
(§2) Product Characterization—Reactions were analyzed via analytical HPLC (Supelcosil LC18-T; Supelco, Bellefonte, Pa.; 5 μm, 250×3 mm, 40 mM phosphoric acid, pH 6.5 with triethylamine, with a gradient of 0-10% MeOH over 20 min, 0.8 mL/min, A254). Due to earlier elution, a 5 min 0% MeOH isocratic hold was performed prior to starting the gradient for CTP-containing reactions.
(§3) Kinetic Measurements—Pseudo first order kinetics were obtained by fixing glucose-1-phosphate at a saturating concentration of 10 mM (Barton et al. (2001) Nat Struct Biol 8, 545-551), and titrating NTPs. At least eight different concentrations in the range of ¼×KM to 4×KM (0.09-20 mM for dTTP, 0.2-40 mM for others) were assayed in triplicate. […] Activities were corrected for time and enzyme concentrations, and the kinetic curves were fit to the Michaelis-Menton equation using SigmaPlot with the Enzyme Kinetics module (SPSS, Chicago, Ill., USA).

RmlA Q83S [2] = molecular target: T1, RmlA Q83S (Salmonella typhimurium, UniProt P26393, Q83S); assay: Pseudo first order kinetics of RmlA Q83S mutant; format: biochemical, Salmonella enterica typhimurium LT2; conditions: 10 mM glucose-1-phosphate, 0.05-25 μM enzyme, [NTP] + 5 mM MgCl2, 100 mM Tris-HCl pH 8.0, 37° C.; for Km: read-out: KM^app
T1 construct: His6 (pET28a) (N); made in house; host or cells: Escherichia coli BL21 (DE3)
Description: (§4) Driven by these mutant plasmids, the corresponding RmlA variants were subsequently expressed and purified as described above.
as §1, §2, §3

RmlA Q83E = molecular target: T2, RmlA Q83E (Salmonella typhimurium, UniProt P26393, Q83E); assay: Relative activity of RmlA mutant Q83E with alternative NTPs; format: biochemical, Salmonella enterica typhimurium LT2; conditions: 10 mM Glucose-1-phosphate, 0.1-10 μM enzyme, 5 mM NTP, 10 mM MgCl2, pH 8.0, 37° C.
T2 construct: His6 (pET28a) (N); made in house; host or cells: Escherichia coli BL21 (DE3)
Description: (§5) RmlA mutagenesis—RmlA mutants were generated with the Quikchange mutagenesis kit (Stratagene, La Jolla, Calif., USA) using the wt RmlA-pET28a parent expression plasmid as the template and the primers indicated in Table 1. Individual progeny plasmids were confirmed by DNA sequencing to carry the desired mutations. Driven by these mutant plasmids, the corresponding RmlA variants were subsequently expressed and purified as described above.
as §1
as §2, with “reactions. For nucleotide sugar products with commercially available standards, HPLC peak identity was confirmed by co-elution.” for “reactions.”

RmlA Q83A = molecular target: T3, RmlA Q83A (Salmonella typhimurium, UniProt P26393, Q83A); assay: Relative activity of RmlA mutant Q83A with alternative NTPs; format: biochemical, Salmonella enterica typhimurium LT2; conditions: 10 mM Glucose-1-phosphate, 0.1-10 μM enzyme, 5 mM NTP, 10 mM MgCl2, pH 8.0, 37° C.
T3 construct: His6 (pET28a) (N); made in house; host or cells: Escherichia coli BL21 (DE3)
Description: as §5, §1
as §2, with “reactions. For nucleotide sugar products with commercially available standards, HPLC peak identity was confirmed by co-elution.” for “reactions.”

RmlA Q83S [3] = molecular target: T1, RmlA Q83S; assay: Relative activity of RmlA mutant Q83S with alternative NTPs; format: biochemical, Salmonella enterica typhimurium LT2; conditions: 10 mM Glucose-1-phosphate, 0.1-10 μM enzyme, 5 mM NTP, 10 mM MgCl2, pH 8.0, 37° C.
Description: as §5, §1
as §2, with “reactions. For nucleotide sugar products with commercially available standards, HPLC peak identity was confirmed by co-elution.” for “reactions.”

RmlA Q83D [4] = molecular target: T4, RmlA Q83D (Salmonella typhimurium, UniProt P26393, Q83D); assay: Relative activity of RmlA mutant Q83D with alternative NTPs; format: biochemical, Salmonella enterica typhimurium LT2; conditions: 10 mM Glucose-1-phosphate, 0.1-10 μM enzyme, 5 mM NTP, 10 mM MgCl2, pH 8.0, 37° C.
T4 construct: using BSA as a standard, and a molecular mass of 34.6 kDa; His6 (pET28a) (N); made in house; host or cells: Escherichia coli BL21 (DE3)
Description: as §5, §1
as §2, with “reactions. For nucleotide sugar products with commercially available standards, HPLC peak identity was confirmed by co-elution.” for “reactions.”

RmlA Q83N = molecular target: T5, RmlA Q83N (Salmonella typhimurium, UniProt P26393, Q83N); assay: Relative activity of RmlA mutant Q83N with alternative NTPs; format: biochemical, Salmonella enterica typhimurium LT2; conditions: 10 mM Glucose-1-phosphate, 0.1-10 μM enzyme, 5 mM NTP, 10 mM MgCl2, pH 8.0, 37° C.
T5 construct: His6 (pET28a) (N); made in house; host or cells: Escherichia coli BL21 (DE3)
Description: as §5, §1
as §2, with “reactions. For nucleotide sugar products with commercially available standards, HPLC peak identity was confirmed by co-elution.” for “reactions.”

[5] = tested on: UDP-sugar pyrophosphorylase (Usp); conditions: Thermus caldophilus Usp, literature; cited from earlier work
ST0452 = ST0452 (Sulfurisphaera tokodaii, UniProt Q975F9); conditions: Sulfolobus tokodaii ST0452, literature; cited from earlier work
RmlA Q83D [6] = molecular target: T4, RmlA Q83D; assay: Pseudo first order kinetics of RmlA Q83D mutant; format: biochemical, Salmonella enterica typhimurium LT2; conditions: for kcat^app / Km: 10 mM glucose-1-phosphate, 0.05-25 μM enzyme, [NTP] + 5 mM MgCl2, 100 mM Tris-HCl pH 8.0, 37° C.; for Km: read-out: KM^app
Description: as §4, §1, §2, §3

T5 sequence (P26393 whole entry Q83N): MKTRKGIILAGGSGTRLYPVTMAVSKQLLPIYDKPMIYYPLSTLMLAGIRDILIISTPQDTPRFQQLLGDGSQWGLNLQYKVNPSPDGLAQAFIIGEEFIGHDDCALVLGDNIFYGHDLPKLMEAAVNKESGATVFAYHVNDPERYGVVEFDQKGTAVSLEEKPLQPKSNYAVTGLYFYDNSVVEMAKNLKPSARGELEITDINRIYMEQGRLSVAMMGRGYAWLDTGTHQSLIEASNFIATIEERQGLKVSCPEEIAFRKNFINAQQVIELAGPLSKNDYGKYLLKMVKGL
T4 sequence (P26393 whole entry Q83D): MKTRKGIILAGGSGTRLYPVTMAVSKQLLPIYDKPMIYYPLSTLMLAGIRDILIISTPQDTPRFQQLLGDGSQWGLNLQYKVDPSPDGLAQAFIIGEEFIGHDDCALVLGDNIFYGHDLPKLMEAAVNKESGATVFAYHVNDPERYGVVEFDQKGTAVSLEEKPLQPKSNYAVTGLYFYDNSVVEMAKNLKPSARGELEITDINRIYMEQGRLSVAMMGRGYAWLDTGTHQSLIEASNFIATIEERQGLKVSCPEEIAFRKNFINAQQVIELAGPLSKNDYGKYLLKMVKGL
wt RmlA (glucose-1-phosphate thymidylyltransferase), sequence (P26393 whole entry): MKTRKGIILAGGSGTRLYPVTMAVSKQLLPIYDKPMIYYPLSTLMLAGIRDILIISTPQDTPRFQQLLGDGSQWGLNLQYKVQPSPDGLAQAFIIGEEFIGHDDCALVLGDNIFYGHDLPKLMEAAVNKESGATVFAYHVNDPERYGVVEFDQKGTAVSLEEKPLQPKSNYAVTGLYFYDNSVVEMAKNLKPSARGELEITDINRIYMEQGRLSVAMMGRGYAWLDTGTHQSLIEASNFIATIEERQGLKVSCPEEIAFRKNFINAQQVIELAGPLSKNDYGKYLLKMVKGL
T3 sequence (P26393 whole entry Q83A): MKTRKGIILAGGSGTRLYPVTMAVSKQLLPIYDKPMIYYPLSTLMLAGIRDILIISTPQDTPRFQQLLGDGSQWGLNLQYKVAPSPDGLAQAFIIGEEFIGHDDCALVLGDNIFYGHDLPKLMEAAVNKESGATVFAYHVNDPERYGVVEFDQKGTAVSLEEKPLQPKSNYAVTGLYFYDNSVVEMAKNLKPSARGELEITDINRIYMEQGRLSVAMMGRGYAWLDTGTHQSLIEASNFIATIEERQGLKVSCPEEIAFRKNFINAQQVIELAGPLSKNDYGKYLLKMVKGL
ST0452, sequence (Q975F9 whole entry): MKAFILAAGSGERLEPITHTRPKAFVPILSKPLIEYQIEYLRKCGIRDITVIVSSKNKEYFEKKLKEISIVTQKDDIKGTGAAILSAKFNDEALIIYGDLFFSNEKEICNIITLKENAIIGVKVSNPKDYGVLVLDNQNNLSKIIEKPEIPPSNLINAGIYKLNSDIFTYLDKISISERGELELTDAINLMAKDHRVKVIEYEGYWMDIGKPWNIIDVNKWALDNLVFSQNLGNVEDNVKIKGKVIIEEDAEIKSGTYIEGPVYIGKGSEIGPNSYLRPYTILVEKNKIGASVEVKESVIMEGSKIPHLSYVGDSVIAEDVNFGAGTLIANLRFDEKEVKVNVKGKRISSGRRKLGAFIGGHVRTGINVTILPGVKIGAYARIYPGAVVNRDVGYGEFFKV
T2 sequence (P26393 whole entry Q83E): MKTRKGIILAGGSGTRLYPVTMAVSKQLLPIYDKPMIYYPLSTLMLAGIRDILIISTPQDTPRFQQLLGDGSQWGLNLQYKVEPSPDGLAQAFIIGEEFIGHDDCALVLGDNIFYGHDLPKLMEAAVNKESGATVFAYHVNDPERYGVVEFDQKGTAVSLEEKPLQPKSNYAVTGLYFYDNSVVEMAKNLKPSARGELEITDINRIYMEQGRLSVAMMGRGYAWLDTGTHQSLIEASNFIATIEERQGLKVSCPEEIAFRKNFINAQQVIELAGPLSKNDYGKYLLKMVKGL
T1 sequence (P26393 whole entry Q83S): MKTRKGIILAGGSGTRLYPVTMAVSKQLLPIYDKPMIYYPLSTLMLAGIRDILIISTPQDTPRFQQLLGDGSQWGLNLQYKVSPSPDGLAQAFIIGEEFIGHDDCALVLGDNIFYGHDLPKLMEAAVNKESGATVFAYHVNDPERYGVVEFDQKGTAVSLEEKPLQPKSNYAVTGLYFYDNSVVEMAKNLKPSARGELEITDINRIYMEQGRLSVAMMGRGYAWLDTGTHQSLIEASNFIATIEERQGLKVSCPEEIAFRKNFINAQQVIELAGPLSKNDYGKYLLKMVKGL

Row | SMILES | reduction in the apparent RmlA specificity constant (kcat/KM) versus dTTP [1] | kcat^app (RmlA Q83S [2]) [s⁻¹] | Km (RmlA Q83S [2]) [µM] | Relative activity of Q83E as compared to wt RmlA (RmlA Q83E) | Relative activity of Q83A as compared to wt RmlA (RmlA Q83A) | Relative activity of Q83S as compared to wt RmlA (RmlA Q83S [3]) | Relative activity of Q83D as compared to wt RmlA (RmlA Q83D [4]) | Relative activity of Q83N as compared to wt RmlA (RmlA Q83N) | turnover of glucose-1-phosphate with NTP by Usp [5] | utilization of NTP by ST0452 (ST0452) | improvement in apparent KM, Q83D versus wild-type (RmlA Q83D [6]) [fold] | kcat^app (RmlA Q83D [6]) [s⁻¹] | Km (RmlA Q83D [6]) [µM] | reduction in the apparent RmlA specificity constant (kcat/KM) versus dTTP ([1]; wild-type RmlA, glucose-1-phosphate) [fold] | kcat^app ([1]; Wild-type RmlA, 10 mM glucose-1-phosphate, 0.05-25 μM enzyme, [NTP] + 5 mM MgCl2, 100 mM Tris-HCl pH 8.0, 37° C.) [s⁻¹] | Km ([1]; read-out: KM^app, Wild-type RmlA, 10 mM glucose-1-phosphate, 0.05-25 μM enzyme, [NTP] + 5 mM MgCl2, 100 mM Tris-HCl pH 8.0, 37° C.) [µM] | increase in KM, Q83D versus wild-type (RmlA Q83D [6]) [fold]
1 | Nc1ncnc2c1ncn2[C@@H]1O[C@H](COP(=O)(O)OP(=O)(O)OP(=O)(O)O)[C@@H](O)[C@H]1O [ATP, adenosine-5′-triphosphate] | > 15,000 fold | 0.48 ± 0.0233 | 3400 ± 600 | 0.7 | 7.9 | 14.0 | 0.6 | 6.5 | turn over | could not utilize | – | – | – | – | – | – | –
2 | Nc1ccn([C@@H]2O[C@H](COP(=O)(O)OP(=O)(O)OP(=O)(O)O)[C@@H](O)[C@H]2O)c(=O)n1 [CTP, cytidine-5′-triphosphate] | – | – | – | 0.8 | 1.3 | 1.5 | 0.2 | 0.7 | turn over | could not utilize | – | – | – | – | – | – | –
3 | Nc1nc2c(ncn2[C@@H]2O[C@H](COP(=O)(O)OP(=O)(O)OP(=O)(O)O)[C@@H](O)[C@H]2O)c(=O)[nH]1 [GTP, guanosine-5′-triphosphate] | – | – | – | 2.8 | 0.7 | 2.2 | 3.7 | 0.2 | turn over | could not utilize | 6.5 | 0.213 ± 0.015 | 1300 ± 400 | – | – | – | –
4 | O=c1ccn([C@@H]2O[C@H](COP(=O)(O)OP(=O)(O)OP(=O)(O)O)[C@@H](O)[C@H]2O)c(=O)[nH]1 [UTP, uridine-5′-triphosphate] | – | – | – | 1.3 | 0.2 | 0.2 | 0.2 | 0.2 | turn over | good activity | – | – | – | ~12 | – | – | –
5 | Nc1ncnc2c1ncn2[C@H]1C[C@H](O)[C@@H](COP(=O)(O)OP(=O)(O)OP(=O)(O)O)O1 [dATP, 2′-deoxyadenosine-5′-triphosphate] | – | 5.33 ± 0.333 | 1100 ± 300 | 0.4 | 4.6 | 7.9 | 0.8 | 3.8 | – | good activity | – | – | – | – | – | – | –
6 | Nc1ccn([C@H]2C[C@H](O)[C@@H](COP(=O)(O)OP(=O)(O)OP(=O)(O)O)O2)c(=O)n1 [dCTP, 2′-deoxycytidine-5′-triphosphate] | – | – | – | 1.1 | 0.8 | 1.4 | 1.2 | – | – | good activity | – | – | – | – | – | – | –
7 | Nc1nc2c(ncn2[C@H]2C[C@H](O)[C@@H](COP(=O)(O)OP(=O)(O)OP(=O)(O)O)O2)c(=O)[nH]1 [dGTP, 2′-deoxyguanosine-5′-triphosphate] | – | – | – | 1.7 | 0.2 | 0.6 | 1.6 | 0.1 | – | good activity | – | 5 ± 0.333 | 11500 ± 1800 | – | – | – | –
8 | Cc1cn([C@H]2C[C@H](O)[C@@H](COP(=O)(O)OP(=O)(O)OP(=O)(O)O)O2)c(=O)[nH]c1=O [dTTP, 2′deoxythymidine-5′-triphosphate] | – | 6.33 ± 0.5 | 2400 ± 600 | 1.0 | 0.2 | 0.3 | 0.2 | 0.3 | turn over | good activity | – | 3.62 ± 0.233 | 6200 ± 1200 | – | 30.83 ± 0.667 | 290 ± 40 | 21

Reference: patent US8097443B2, “Nucleotidyltransferases with enhanced nucleotide triphosphate flexibility” (priority 2007, dated 2012)
